Test results: US20220331303A1, “USE OF AN OREXIN 2 RECEPTOR AGONIST FOR THE TREATMENT OF EXCESSIVE SLEEPINESS” (Takeda Pharmaceutical Company Limited, priority 2019, published 2022)

System: sleep-deprived healthy volunteers
Assay: Polysomnography (PSG) of recovery sleep after sleep deprivation in healthy volunteers
Type: in vivo, human
Protocol: Exploratory objectives in sleep-deprived healthy volunteers were as follows: • 1. To compare the effects of Compound A (LD and HD) and modafinil (300 mg) on promoting wakefulness as measured by MWT. • 2. To determine PK-PD relationships for selected PD measures. • 3. To evaluate PK-BP relationships in BP change after Compound A administration. • 4. To compare various polysomnography (PSG) parameters between Day −1 (predose) and Day 2 (recovery sleep). • 5. To determine whether there is any difference in the PSG parameters on Day 2 (recovery sleep) between Compound A and placebo or modafinil. • 6. To evaluate the continuous electroencephalogram (EEG) obtained during the MWTs for power spectra changes for Compound A (LD and HD) versus placebo, Compound A (LD and HD) versus modafinil, and modafinil versus placebo.
During the day before dosing on Day 1, participants were administered the KSS at scheduled timepoints. A practice MWT session was performed on Day 1 treatment period 1 (only once during the entire study) to familiarize subjects with the procedures. Study drug was administered in the clinic in the evening on Day 1 of each treatment period. Subjects underwent the MWT and KSS at specified timepoints after the start of the infusion. Subjects were required to stay awake between the MWT tests. Following completion of the IV infusion on Day 2, subjects underwent an additional MWT test. When the final MWT test and cognitive testing were completed, subjects were allowed to sleep (recovery sleep) for approximately 6 hours. PSG recording was collected during this time. Subjects were discharged from the unit after completion on Day 2 with continuing actigraphy upon discharge (to begin on Day −6 before the next treatment period). The interval between each subsequent treatment period was at least 7 days to ensure that the subject's circadian rhythm had returned to a normal cycle. Subject's vital signs, including BP, were monitored during the dosing and testing period. Blood samples for determination of Compound A plasma concentrations were collected at specified timepoints on Days 1 and 2 of each treatment period. Subjects completed the Columbia-Suicide Severity Rating Scale (C-SSRS) during screening, before study drug administration, and before discharge on Day 2 of each treatment period.
The PSGs assess recovery sleep during the day after the end of the sleep deprivation period. There were no corrections for multiple comparisons. […]

[1] = M: Modafinil 300 mg, recovery sleep
[2] = Modafinil 300 mg, recovery sleep

For `NC(=O)C[S+]([O-])C(c1ccccc1)c1ccccc1` (stereo not shown) [Modafinil, modafinil, reference compound], the “Stage N3 Duration LS Mean” value (M: Modafinil 300 mg) was 51.61 min, the “Stage N3 Duration LS Mean Difference vs placebo Estimate” value (M: Modafinil 300 mg) was -29.78 min and the “Stage REM % LS Mean” value (M: Modafinil 300 mg) was 17.46%. For the same molecule, the “Stage REM % LS Mean Difference vs placebo Estimate” value (M: Modafinil 300 mg) was −3.92%, the “Stage REM Duration LS Mean” value (M: Modafinil 300 mg) was 41.38 min and the “Stage REM Duration LS Mean Difference vs placebo Estimate” value (M: Modafinil 300 mg) was -25.18 min. For the same molecule, the “Stage Wake % LS Mean” value (M: Modafinil 300 mg) was 23.01%, the “Stage Wake % LS Mean Difference vs placebo Estimate” value (M: Modafinil 300 mg) was 12.71% and the “Stage Wake Duration LS Mean” value (M: Modafinil 300 mg) was 60.92 min. For the same molecule, the “Stage Wake Duration LS Mean Difference vs placebo Estimate” value (M: Modafinil 300 mg) was 25.39 min, the “Total Arousal Index LS Mean” value (M: Modafinil 300 mg) was 14.28 and the “Total Arousal Index LS Mean Difference vs placebo Estimate” value (M: Modafinil 300 mg) was 4.28. For the same molecule, the “Total Arousal LS Mean” value (M: Modafinil 300 mg) was 51.11, the “Total Arousal LS Mean Difference vs placebo Estimate” value (M: Modafinil 300 mg) was 0.70 and the “Total Leg Movements LS Mean” value (M: Modafinil 300 mg) was 23.91. The “Total Leg Movements LS Mean Difference vs placebo Estimate” value (M: Modafinil 300 mg) was 4.97, the “Total Leg Movements N1 LS Mean” value (M: Modafinil 300 mg) was 2.19 and the “Total Leg Movements N1 LS Mean Difference vs placebo Estimate” value (M: Modafinil 300 mg) was 0.93. For the same molecule, the “Total Leg Movements N2 LS Mean” value (M: Modafinil 300 mg) was 10.10, the “Total Leg Movements N2 LS Mean Difference vs placebo Estimate” value (M: Modafinil 300 mg) was 1.56 and the “Total Leg Movements N3 LS Mean” value (M: Modafinil 300 mg) was 2.61. The “Total Leg Movements N3 LS Mean Difference vs placebo Estimate” value (M: Modafinil 300 mg) was 0.99, the “Total Leg Movements REM LS Mean” value (M: Modafinil 300 mg) was 5.75 and the “Total Leg Movements REM LS Mean Difference vs placebo Estimate” value (M: Modafinil 300 mg) was 0.00. For the same molecule, the “Total Leg Movements with Awakening LS Mean” value (M: Modafinil 300 mg) was 3.14, the “Total Leg Movements with Awakening LS Mean Difference vs placebo Estimate” value (M: Modafinil 300 mg) was 1.39 and the “Total Leg Movements with Microarous LS Mean” value (M: Modafinil 300 mg) was 3.44. The “Total Leg Movements with Microarous LS Mean Difference vs placebo Estimate” value (M: Modafinil 300 mg) was 1.43, the “Total Leg Movements with Resp Event LS Mean” value (M: Modafinil 300 mg) was 0.04 and the “Total Leg Movements with Resp Event LS Mean Difference vs placebo Estimate” value (M: Modafinil 300 mg) was −0.01. The “Total Leg Movements without Arousal LS Mean” value (M: Modafinil 300 mg) was 20.42, the “Total Leg Movements without Arousal LS Mean Difference vs placebo Estimate” value (M: Modafinil 300 mg) was 3.50 and the “Total Recording Time LS Mean” value (M: Modafinil 300 mg) was 321.98 min. For the same molecule, the “Total Recording Time LS Mean Difference vs placebo Estimate” value (M: Modafinil 300 mg) was -34.92 min, the “Total Sleep Time LS Mean” value (M: Modafinil 300 mg) was 224.54 min and the “Total Sleep Time LS Mean Difference vs Placebo Estimate” value (M: Modafinil 300 mg) was -84.93 min. The “Wake After Persistent Sleep LS Mean” value (M: Modafinil 300 mg) was 47.63 min, the “Wake After Persistent Sleep LS Mean Difference vs placebo Estimate” value (M: Modafinil 300 mg) was 13.00 min and the “Wake After Sleep Onset LS Mean” value (M: Modafinil 300 mg) was 60.92 min. For the same molecule, the “Wake After Sleep Onset LS Mean Difference vs placebo Estimate” value (M: Modafinil 300 mg) was 25.39 min, the “PSG Awakenings LS Mean” value [1] was 5.38 and the “PSG Awakenings LS Mean Difference vs Placebo Estimate” value [1] was 0.89. For the same molecule, the “PSG N1 Latency LS Mean” value [1] was 6.07 min, the “PSG N1 Latency LS Mean Difference vs Placebo Estimate” value [1] was 0.71 min and the “PSG N2 Latency LS Mean” value [1] was 8.62 min. For the same molecule, the “PSG N2 Latency LS Mean Difference vs Placebo Estimate” value [1] was 1.98 min, the “PSG N3 Latency LS Mean” value [1] was 38.00 min and the “PSG N3 Latency LS Mean Difference vs Placebo Estimate” value [1] was 10.73 min. For the same molecule, the “PSG Per. Slp LS Mean” value [1] was 26.19 min, the “PSG Per. Slp LS Mean Difference vs Placebo Estimate” value [1] was 19.32 min and the “PSG REM Latency LS Mean” value [1] was 71.67 min. The “PSG REM Latency LS Mean Difference vs Placebo Estimate” value [1] was 16.73 min, the “PSG Sleep Efficiency LS Mean” value [1] was 68.28% and the “PSG Sleep Efficiency LS Mean Difference vs Placebo Estimate” value [1] was −18.44%. For the same molecule, the “PSG Sleep Onset LS Mean” value [1] was 5.99 min, the “PSG Sleep Onset LS Mean Difference vs Placebo Estimate” value [1] was 2.00 min and the “PSG Spontaneous Arousal Index LS Mean” value [1] was 11.91. For the same molecule, the “PSG Spontaneous Arousal Index LS Mean Difference vs Placebo Estimate” value [1] was 2.98, the “PSG Spontaneous Arousal LS Mean” value [1] was 42.14 and the “PSG Spontaneous Arousal LS Mean Difference vs Placebo Estimate” value [1] was −2.93. For the same molecule, the “PSG Stage N1 % LS Mean” value [1] was 10.14%, the “PSG Stage N1 % LS Mean Difference vs Placebo Estimate” value [1] was 4.05% and the “PSG Stage N1 Duration LS Mean” value [1] was 19.12 min. For the same molecule, the “PSG Stage N1 Duration LS Mean Difference vs Placebo Estimate” value [1] was 0.72 min, the “PSG Stage N2 % LS Mean” value [1] was 50.94% and the “PSG Stage N2 % LS Mean Difference vs Placebo Estimate” value [1] was 4.24%. For the same molecule, the “PSG Stage N2 Duration LS Mean” value [1] was 111.09 min, the “PSG Stage N2 Duration LS Mean Difference vs Placebo Estimate” value [1] was -32.99 min and the “PSG Stage N3 % LS Mean” value [1] was 21.61%. The “PSG Stage N3 % LS Mean Difference vs Placebo Estimate” value [1] was −4.22%, the “PSG sleep efficiency, LS mean difference vs placebo” value [2] was −18.44% and the “PSG spontaneous arousal index, LS mean difference vs placebo” value [2] was 2.98. The “PSG stage N1 %, LS mean difference vs placebo” value [2] was 4.05%, the “PSG stage N2 duration, LS mean difference vs placebo” value [2] was -32.99 min and the “PSG stage N3 %, LS mean difference vs placebo” value [2] was −4.22%. The “PSG stage N3 duration, LS mean difference vs placebo” value [2] was −29.78, the “PSG stage REM %, LS mean difference vs placebo” value [2] was −3.92% and the “PSG stage REM duration, LS mean difference vs placebo” value [2] was -25.18 min. The “PSG stage wake %, LS mean difference vs placebo” value [2] was 12.71%, the “PSG stage wake duration, LS mean difference vs placebo” value [2] was 25.39 min and the “PSG time to per. slp (persistent sleep), LS mean difference vs placebo” value [2] was 19.32 min. The “PSG total arousal index, LS mean difference vs placebo” value [2] was 4.28, the “PSG total recording time, LS mean difference vs placebo” value [2] was -34.92 min and the “PSG total sleep time, LS mean difference vs placebo” value [2] was -84.93 min. The “PSG wake after sleep onset, LS mean difference vs placebo” value [2] was 25.39 min.
